From patent US11124785B2, “Rothia subtilisins, S8A family proteases, as therapeutic enzymes for application in gluten intolerance disorders” (TRUSTEES OF BOSTON UNIVERSITY, priority 2016, dated 2021)

What was measured:
Format in all cases: biochemical
gliadins = assay: Gliadin degradation control of Example 3 (SDS-PAGE); conditions: gliadins 500 μg/ml, enzyme 25 μg/ml, pH 8.0
Description: (§1) FIGS. 15A-15F show effective ATI degradation by subtilisins from B. subtilis (nattokinase). […] ATI (500 μg/ml) incubated with Rmep from R. mucilaginosa (FIG. 15A) or nattokinase from B. subtilis (FIG. 15C) at 50, 25, or 10 μg/ml; FIGS. 15B and 15D, Gliadins (500 μg/ml) incubated with Rmep (FIG. 15B) or nattokinase (FIG. 15D) at 25 μg/ml. FIGS. 15E and 15F, ATIs incubated with control heat inactivated enzymes, Rmep (FIG. 15E) or nattokinase (FIG. 15F).
(§2) ATIs were isolated from wheat cultivars as described^3. They were incubated at a final concentration of 500 μg/ml with 10, 25 or 50 μg/ml Rmep (from R. mucilaginosa), or nattokinase (from B. subtilis). The controls incubations were carried out with heat-inactivated Rmep and nattokinase. Experiments were conducted in 50 mM Tris-HCl, pH 8.0. After 0, 15 min, 30 min, 1 h, and 4 h incubation, 20 μl aliquots were removed, mixed with SDS-sample buffer, heated at 85° C. for 5 min and analyzed by 4-12% SDS PAGE. Proteins were visualized with Coomassie Blue staining.

[1] = test system: gliadin-derived FRET substrate QGSFQP; assay: FRET substrate hydrolysis, QGSFQP; conditions: substrate 100 μM, Rmep 1 μg/ml, pH 8.0
Description: (§3) FIG. 4D and FIG. 4E are representative graphs of the hydrolysis of gliadin-derived FRET substrates. FRET substrates containing QPQLPY (SEQ ID NO: 22), PQPQPQ (SEQ ID NO: 23) and QGSFQP (SEQ ID NO: 24), each at 100 μM, were incubated with Rmep […] and subtilisin A (FIG. 4E), at 1 μg/ml and 0.5 μg/ml, respectively. Controls were boiled Rmep and subtilisin A incubated with PQPQLPY (+) (SEQ ID NO: 25), PQPQPQ (⋄) (SEQ ID NO: 23) and QGSFQP (*) (SEQ ID NO: 24) (no activity, baseline).
(§4) FRET substrate hydrolysis—Three fluorescence resonance energy transfer (FRET) substrates comprising the hexapeptides QPQLPY (SEQ ID NO: 22), PQPQPQ (SEQ ID NO: 23) and QGSFQP (SEQ ID NO: 24) were synthesized with at the N-terminus the HILYTE FLUOR™ 488 label, and at the C-terminus with K(QXL520) (Anaspec, Fremont, Calif.). Rmep (1 μg/ml) and subtilisin A (0.5 μg/ml) were incubated with the substrates (100 μM) in 50 mM TrisHCl pH 8.0. Samples were incubated at 37° C. and fluorescence increase, indicating hydrolysis, was measured every 5 min for 30 min, and every 10 min for the next 30 min, at λex 485 nm and λem 520 nm, using a Genios microtiter plate reader in the kinetic mode.

[2] = test system: gliadin-derived FRET substrate QPQLPY; assay: FRET substrate hydrolysis, QPQLPY; conditions: substrate 100 μM, Rmep 1 μg/ml, pH 8.0, 37° C.
Description: as §3, §4

Suc-AAPF-pNA = assay: pH activity profile of Rmep with Suc-AAPF-pNA; conditions: Suc-AAPF-pNA 200 μM; citric acid/phosphate buffer mixtures pH 2-12
Description: Activity of Rmep in 0.1M Citric acid/0.2M phosphate buffer mixtures, pH 2-12, was measured with Suc-AAPF-pNA (SEQ ID NO: 4) (200 μM) as the substrate.
Hydrolysis of paranitroanilide-derivatized substrates—Paranitroanilide (pNA)-derivatized tripeptide substrates were chemically synthesized at >90% purity (21st Century Biochemicals, Marlborough, Mass.). The substrates obtained were Z-YPQ-pNA, Z-QQP-pNA, Z-LPY-pNA, Z-PFP-pNA, Z-PPF-pNA, where Z=benzyloxycarbonyl, Y=tyrosine, P=proline, Q=glutamine, L=leucine, and F=phenylalanine Suc-AAPF-pNA (SEQ ID NO: 4) was obtained from Sigma, where Suc=N-succinyl and A=alanine. The peptides were dissolved in 75-100% DMSO at 10 mM, and were used at a final concentration of 200 μM in 50 mM TrisHCl pH 8.0. Purified Rothia enzyme or subtilisin A from Bacillus licheniformis (Sigma) were tested at final concentrations of 1 μg/ml. Some experiments were conducted in the presence of inhibitors 4-(2-Aminoethyl) benzenesulfonyl fluoride (AEBSF), Aprotinin, E-64, EDTA, phenylmethanesulfonyl fluoride (PMSF) and Eglin C, which were tested at final concentrations of 10 mM, 0.08 mM, 0.1 mM, 1.5 mM, 1 mM, and 0.06-1.2 μM, respectively. […] Substrate hydrolysis was monitored for 10 h at 405 nm using a Genios microtiter plate reader (Tecan, Männedorf, Switzerland) in the kinetic mode at 37° C.

wheat ATI proteins = assay: Degradation of amylase-trypsin inhibitors (SDS-PAGE); conditions: ATIs 500 μg/ml, enzyme 10, 25 or 50 μg/ml, pH 8.0, up to 4 h
Description: as §1, §2

Rmep: DEAE pooled fraction F2 of R. mucilaginosa ATCC 25296 extract with highest gluten-degrading enzyme activity; contains subtilisins C6R5V9_9MICC and C6R5W1_9MICC
degradation of gliadins (gliadins): degraded
hydrolysis of FRET substrate QGSFQP [1]: not cleaved
hydrolysis of FRET substrate QPQLPY [2]: rapidly hydrolyzed
pH range over which the enzyme was active (Suc-AAPF-pNA): 6.0-10.0
degradation of wheat ATI proteins (wheat ATI proteins): resistant to degradation
